Data as given in US10821079B2, “PKC activators and combinations thereof” (Cognitive Research Enterprises, Inc., priority 2011, dated 2020).

Tests used:
[1] = system: primary rat hippocampal neurons; experiment: Neuroprotection against ASPD induced toxicity, MTT, primary neurons; type: cell-based
Protocol: Viability of cells was measured by MTT assay. MTT (3-(4,5-Dimethylthiazol-2-yl)-2,5-diphenyltetrazolium bromide) is a tetrazolium salt that is cleaved to formazan by the succinate dehydrogenase, which is only active in viable cells. After solubilization of the formazan, the amount of dye can be quantified with a microplate reader at 570 nm along with a reference of 630 nm. For MTT assay, 5×104 primary rat hippocampal neurons from 18-day-old embryonic Sprague-Dawley rat brains were plated on each well of 24-well plates coated with poly-D-lysine. After treatment, the cells were washed with 1×PBS and were incubated with 200 μl of 1 mg/ml MTT solution (Sigma, USA) at 37° C. for 2 hr. Then the MTT-solution was removed and the cells were lysed with 200 μl isopropanol containing 0.04 M HCl and 160 mM NaOH for 10 min. Finally, the reading was done at 570 nm and 630 nm. All the samples were done in triplicates and the data was represented as the percentage of control.
All studies used 50 nM ASPDs. The viability of the cells were measured by the MTT assay.

PKC-α = PKC-α translocation to membrane in SH-SY5Y cells (Western blot); type: cell-based, human; conditions: 0.27 nM, 0-60 min
Protocol: Cells were harvested in homogenizing buffer containing 10 mM Tris-Cl (pH 7.4), 1 mM PMSF (phenylmethylsulfonyl fluoride), 1 mM EGTA, 1 mM EDTA, 50 mM NaF, and 20 μM leupeptin and were lysed by sonication. The homogenate was centrifuged at 100,000×g for 15 min at 4° C. to obtain the cytosolic fraction (supernatant) and membrane (pellet). The pellet was resuspended in the homogenizing buffer by sonication. Protein concentration was measured using the Coomassie Plus (Bradford) Protein Assay kit (Pierce, USA). Following quantification, 20 μg of protein from each sample was subjected to SDS-PAGE analysis in 4-20% gradient Tris-Glycine gel (Invitrogen, USA). The separated protein was then transferred to nitrocellulose membrane. The membrane was blocked with BSA at room temperature for 15 min and was incubated with primary antibody over night at 4° C. […] Western Blot was imaged in the ImageQuant RT-ECL (GE Life Sciences, Piscataway, N.J.) and densitometric quantification was performed using the IMAL software (Blanchette Rockefeller Neurosciences Institute, Morgantown, W. Va.). […]
Equal amounts of proteins were loaded in each lane (20 μg) for both the cytosol and membrane fractions. Activation of PKC was calculated as the percentage of total PKC in the membrane (membrane/cytosol+membrane).

PKC-ε = PKC-ε mRNA by RT-PCR in RA / Bryostatin-1 treated cells; type: cell-based, human
Protocol: RNA was isolated from the cells using Trizol reagent (Invitrogen, USA) following the manufacturer's protocol. Briefly, 5 μg of total RNA was reverse transcribed using oligo (dT) and Superscript III (Invitrogen, USA) at 50° C. for 1 hr. Two μl of the cDNA product was amplified using primers for PKC-ε (Forward Primer—[…], Reverse primer—[…]), and β-tubulin (Forward Primer—[…], Reverse primer—[…]) (Origene, Rockville, Md.) for 25 cycles following standard PCR protocols and 55° C. annealing temperature. The PCR amplicons were analyzed in an E-Gel (Invitrogen, USA). The gel image was documented using a Fuji Image gel scanner (FLA-9000, Fuji Film) and densitometric quantification was performed using the IMAL software (Blanchette Rockefeller Neurosciences Institute, Morgantown, W. Va.). Data were represented as normalized ratio of PKC-ε OD (Optical Density) against β-tubulin OD for three independent experiments.

PKC-ε-RACK1 = molecular target: T1, PKC-ε-RACK1 (Homo sapiens, UniProt Q02156); experiment: PKC-ε interaction with RACK1 (confocal colocalization, coimmunoprecipitation); type: cell-based; conditions: 0.27 nM
T1 construct: host or cells: SH-SY5Y neuroblastoma cells
Protocol: Cells were grown in two chambered slides (Nunc, USA) at low density. For immunofluorescence staining, the cells were washed with PBS (pH 7.4) and fixed with 4% paraformaldehyde for 4 min. Following fixation, the cells were blocked and permeabilized with 5% serum and 0.3% Triton X 100 in 1×PBS for 30 min. The cells were washed three times with 1×PBS and incubated with primary antibodies for 1 hr at 1:100 dilution. The incubation slides were then washed again three times in 1×PBS and were incubated with the FITC anti-rabbit IgG and Rhodamine anti-mouse IgG for 1 hr at 1:400 dilution. The cells were further washed and treated with DAPI (4′,6-diamidino-2′-phenylindole, dihydrochloride) (Thermo Scientific, USA) to stain the nucleus. Finally, the slides were washed and mounted in Pro Long Gold antifade mounting solution (Invitrogen, USA) and were viewed under the LSM 710 Meta confocal microscope (Zeiss) at 350 nm, 490 nm, and 540 nm excitation and 470 nm, 525 nm, and 625 nm emission for DAPI, FITC, and Rhodamine respectively. Six individual fields at 63× oil lens magnification were analyzed for the mean fluorescence intensity (MFI) in each channel. The co-localization correlation generated by the ZEN software (Zeiss).
Coimmunoprecipitation was done following protocol described Besson et al. with slight modification. See Besson et al. (2002) J Biol Chem 277, 22073-22084. […] (DSP) for 30 min at room temperature to crosslink the intracellular proteins following the manufacturer's protocol. After crosslinking the proteins, the cells were lysed in the homogenizing buffer mentioned above. For immunoprecipitation, 500 μg of protein was incubated with 4 μg of appropriate antibody and 25 μl of Protein-A Sepharose beads (Invitrogen, USA) for 3 hr at 4° C. Immunoprecipitates were rinsed three times in the homogenizing buffer and were subjected to Western blot as described earlier.
Next, cells were prepared according to the coimmunoprecipitation methods discussed above.

T1 sequence (Q02156 whole entry): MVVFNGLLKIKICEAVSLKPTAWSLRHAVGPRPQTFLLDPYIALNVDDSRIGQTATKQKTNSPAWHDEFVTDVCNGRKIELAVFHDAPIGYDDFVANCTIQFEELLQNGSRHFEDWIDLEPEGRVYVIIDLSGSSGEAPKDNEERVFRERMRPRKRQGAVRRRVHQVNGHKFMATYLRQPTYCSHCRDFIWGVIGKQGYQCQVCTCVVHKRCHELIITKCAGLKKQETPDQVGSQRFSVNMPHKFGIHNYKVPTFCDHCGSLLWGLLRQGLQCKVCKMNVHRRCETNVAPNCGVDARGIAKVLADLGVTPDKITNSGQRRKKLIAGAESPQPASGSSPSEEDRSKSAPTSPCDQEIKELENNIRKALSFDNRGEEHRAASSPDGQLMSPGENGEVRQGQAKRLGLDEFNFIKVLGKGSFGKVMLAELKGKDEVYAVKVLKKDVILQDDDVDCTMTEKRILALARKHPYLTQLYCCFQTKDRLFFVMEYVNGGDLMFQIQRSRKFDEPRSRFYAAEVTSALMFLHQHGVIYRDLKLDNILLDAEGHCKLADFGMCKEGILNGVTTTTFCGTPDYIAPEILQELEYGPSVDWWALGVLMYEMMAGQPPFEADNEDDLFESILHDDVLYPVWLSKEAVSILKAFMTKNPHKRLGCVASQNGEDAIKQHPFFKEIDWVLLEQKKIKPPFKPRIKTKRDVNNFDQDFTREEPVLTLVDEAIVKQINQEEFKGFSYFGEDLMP

SMILES | viability (Example 25) ([1]; 50 nM ASPDs alone (ASPD) or with the treatment named, 24 hr) | viability at 0.00027 µM ([1]; Rattus norvegicus, Hippocampal neuron, 20 h, read-out: viability restored in ASPD-treated primary neurons) [%] | PKC-α translocation over time (in words) (PKC-α) | increase of mRNA level of PKC-ε (PKC-ε) [fold] | PKC-ε-RACK1 interaction by RACK1 immunoprecipitation (in words) (PKC-ε-RACK1) | colocalization correlation R (PKC-ε-RACK1; 5 min) | colocalization correlation R (PKC-ε-RACK1; 15 min)
CCC/C=C/C=C/C(=O)O[C@H]1/C(=C/C(=O)OC)C[C@H]2C[C@H]([C@@H](C)O)OC(=O)C[C@H](O)C[C@@H]3C[C@H](OC(C)=O)C(C)(C)C(O)(C[C@@H]4C/C(=C/C(=O)OC)C[C@H](/C=C/C(C)(C)[C@]1(O)O2)O4)O3 [Bryostatin-1] | 71.38%±2.34 | 73.2 ± 3.6 | came down to baseline at 60 min | 2 | increased significantly at 5, 15, and 30 min | 0.71 | 0.72
CC1=C(/C=C/C(C)=C/C=C/C(C)=C/C(=O)O)C(C)(C)CCC1 [RA, All-trans retinoic acid] | – | – | – | 2 | – | – | –
